Our source for the Activity values is ChEMBL document CHEMBL3045346, “In vivo evaluation of substituted 2,3-diaryl acrylophenone amide derivatives as anti-implantation agents” (2009).

The source made the active and inactive calls. No cut-off for these calls is given here.

The assay concerns Rattus norvegicus. The experiment in a line: Anti-implanatation activity in female Rattus norvegicus Sprague-Dawley (rat) assessed as implantation in uterine horns at 10 mg/kg, po administered on day 1 to 5 post-coitum measured on day 10 of pregnancy by laparotomy. The assay is classed as functional.
As to `CCCCNC(=O)COc1ccc(/C=C(/C(=O)c2ccc(OC)cc2)c2ccccc2)cc1`, the outcome was inactive. With `CCCCCCCCNC(=O)COc1ccc(/C=C(/C(=O)c2ccc(OC)cc2)c2ccccc2)cc1`, the Activity is listed as 33%.

Turning to `CCCCCCCCCCCCNC(=O)COc1ccc(/C=C(/C(=O)c2ccc(OC)cc2)c2ccccc2)cc1`, the Activity was 67%. In the case of `CCCCN(C)C(=O)COc1ccc(/C=C(/C(=O)c2ccc(OC)cc2)c2ccc(OC)cc2)cc1`, the outcome was inactive. As to `CCCCCCN(CC)C(=O)COc1ccc(/C=C(/C(=O)c2ccc(OC)cc2)c2ccccc2)cc1`, the Activity came out at 33%. Take `CCCCCCCCCNC(=O)COc1ccc(/C=C(/C(=O)c2ccc(OC)cc2)c2ccccc2)cc1`: the result was inactive. Turning to `CCCCNC(=O)COc1ccc(/C=C(/C(=O)c2ccc(OC)cc2)c2ccc(OC)cc2)cc1`, the Activity was 67%.

On to `CCCNC(=O)COc1ccc(/C=C(/C(=O)c2ccc(OC)cc2)c2ccccc2)cc1`, for which the result was inactive.

For the compound `COc1ccc2c(c1)OC(C)(C)[C@H](c1ccccc1)[C@H]2c1ccc(OCCN2CCCC2)cc1` (relative stereo) [REL-ORMELOXIFENE], the Activity stood at 100%. For `CCCCCCCCCCCCNC(=O)COc1ccc(/C=C(/C(=O)c2ccc(OC)cc2)c2ccc(OC)cc2)cc1`, the outcome was inactive.

Regarding `CCCCCCCCNC(=O)COc1ccc(/C=C(/C(=O)c2ccc(OC)cc2)c2ccc(OC)cc2)cc1`, the Activity was found to be 100%. Take `CCCCN(C)C(=O)COc1ccc(/C=C(/C(=O)c2ccc(OC)cc2)c2ccccc2)cc1`: the Activity stood at 67%.
